The source of these data is ChEMBL document CHEMBL1152829, “2,3-Disubstituted 8-arylamino-3H-imidazo[4,5-g]quinazolines: a novel class of antitumor agents” (Eur J Med Chem, 2009).

What is called IC50 is the concentration at which inhibition is half-maximal.

The test system of one assay is A549. The experiment in a line: Cytotoxicity against human A549 cells after 96 hrs by MTT assay. The format is functional, cell-based. Particulars: A549, 96 h. In general terms: Tetrazolium assays rely on reduction of a dye to a coloured formazan, in cell work by metabolically active cells.
The next assay deals with K562. Nature of the assay: Cytotoxicity against human K562 cells after 96 hrs by MTT assay. The format is functional, cell-based. Particulars: K562, 96 h.
A further assay deals with PC-3. Nature of the assay: Cytotoxicity against human PC3 cells after 96 hrs by MTT assay. The format is functional, cell-based. Particulars: PC-3, 96 h.
In another assay the test system is MOLT-4. The experiment in a line: Cytotoxicity against human MOLT4 cells after 96 hrs by MTT assay. The format is functional, cell-based. Particulars: MOLT-4, 96 h.
For the next assay, the system named is MDA-MB-231. Nature of the assay: Cytotoxicity against human MDA-MB-231 cells after 96 hrs by MTT assay. Format: functional, cell-based. Particulars: MDA-MB-231, 96 h.
Assay [1] deals with A549 (Homo sapiens). Nature of the assay: Cell cycle arrest in human A549 cells assessed as accumulation at S phase at 10 umol/L after 24 hrs by FACS relative to untreated control. On the technique in general: Flow cytometry measures light scatter and fluorescence of single cells or particles in a stream.
Assay [2] deals with A549 (Homo sapiens). Nature of the assay: Cell cycle arrest in human A549 cells assessed as accumulation at G2/M phase at 10 umol/L after 24 hrs by FACS relative to untreated control.
The test system of assay [3] is A549 (Homo sapiens). Nature of the assay: Cell cycle arrest in human A549 cells assessed as accumulation at G0/G1 phase at 10 umol/L after 24 hrs by FACS relative to untreated control.

Take `COc1ccc(Nc2ncnc3cc4c(cc23)nc(C(C)C)n4C(C)C)cc1`: the half-inhibitory concentration (IC50) in the assay on A549 was 6.26 µM; with K562 it was above 100 µM; in the assay with PC-3, above 100 µM; with MOLT-4, above 100 µM; with MDA-MB-231, 35.7 µM.

For the molecule `COc1ccc(Nc2ncnc3cc4c(cc23)nc(C(C)C)n4C2CCCCC2)cc1`, the IC50 amounted to 7.31 µM in the assay with A549; 19.3 µM in the assay on K562; 23 µM in the assay with PC-3; 7.69 µM in the assay on MOLT-4; 21.1 µM with MDA-MB-231.

On to `CCCc1nc2cc3c(Nc4ccc(OC)cc4)ncnc3cc2n1CCCOCC`, for which the IC50 in the assay with A549 was 18.3 µM; in the assay with K562, above 100 µM; in the assay with PC-3 it was above 100 µM; in the assay on MOLT-4 it was above 100 µM; in the assay with MDA-MB-231 it was above 100 µM.

For the molecule `CCCCn1c(C(C)C)nc2cc3c(Nc4ccc(C)cc4)ncnc3cc21`, the IC50 in the assay on A549 was 12.1 µM; in the assay on K562 it was above 100 µM; with PC-3, 24.8 µM; in the assay with MOLT-4 it was above 100 µM; in the assay with MDA-MB-231, 10.7 µM.

On to `CCOCCCn1c(Cc2ccccc2)nc2cc3c(Nc4ccc(OC)cc4)ncnc3cc21`, for which the 50% inhibitory concentration (IC50) is 22.1 µM in the assay on A549; 12.9 µM in the assay on K562; above 100 µM with PC-3; above 100 µM in the assay on MOLT-4; 15.5 µM with MDA-MB-231.

Turning to `CC(C)c1nc2cc3c(Nc4ccccc4)ncnc3cc2n1C1CCCCC1`, the IC50 in the assay on A549 was 22.1 µM; in the assay on K562 it was 17.4 µM; in the assay with PC-3, 24.7 µM; in the assay on MOLT-4, 2.83 µM; with MDA-MB-231, above 100 µM.

Regarding `CCCc1nc2cc3c(Nc4ccc(OC)c(OC)c4)ncnc3cc2n1CCCOC`, the IC50 turned out to be 11.5 µM in the assay with A549; 14.3 µM with K562; 24.6 µM with PC-3; 10.9 µM with MOLT-4; 20.6 µM in the assay on MDA-MB-231.

As to `CCOCCCn1c(CC)nc2cc3c(Nc4ccc(OC)cc4)ncnc3cc21`, the IC50 with A549 is 6.05 µM; in the assay on K562, above 100 µM; in the assay on PC-3 it was above 100 µM; with MOLT-4, above 100 µM; with MDA-MB-231 it was above 100 µM.

Regarding `COc1cc2ncnc(Nc3ccc(F)c(Cl)c3)c2cc1OCCCN1CCOCC1` [GEFITINIB], the “percent of cells in S phase” value in the assay with A549 (Homo sapiens) [1] came out at 19.24%. For the same molecule, the “Percentage of cells in G2/M phase” value in the assay on A549 (Homo sapiens) [2] was determined as 4.64%. Besides, the Activity in the assay with A549 (Homo sapiens) [3] is recorded as 76.12%.

In the case of `CCCCn1c(C(C)C)nc2cc3c(Nc4ccc(OC)c(OC)c4)ncnc3cc21`, the IC50 was 5.58 µM in the assay on A549; 18.5 µM in the assay with K562; above 100 µM in the assay with PC-3; 6.63 µM in the assay on MOLT-4; 20 µM in the assay on MDA-MB-231.

In the case of `CCCCn1c(C(C)C)nc2cc3c(Nc4ccc(F)cc4)ncnc3cc21`, the IC50 with A549 turned out to be 4.25 µM; in the assay on K562 it was 5.55 µM; in the assay on PC-3, 9.74 µM; in the assay with MOLT-4, 11.4 µM; in the assay with MDA-MB-231, 20 µM. In the assay on A549 (Homo sapiens) [1], the “percent of cells in S phase” value came out at 10.73%. Further, in the assay on A549 (Homo sapiens) [2], the “Percentage of cells in G2/M phase” value stood at 2.99%. In addition, the Activity in the assay with A549 (Homo sapiens) [3] was found to be 86.28%.

For the molecule `CCOCCCn1c(CC(C)C)nc2cc3c(Nc4ccc(OC)cc4)ncnc3cc21`, the IC50 was 2.81 µM in the assay on A549; 14.4 µM with K562; above 100 µM with PC-3; above 100 µM with MOLT-4; above 100 µM with MDA-MB-231. The “percent of cells in S phase” value in the assay on A549 (Homo sapiens) [1] was found to be 15.41%. Further, the “Percentage of cells in G2/M phase” value in the assay with A549 (Homo sapiens) [2] came to 3.12%. The Activity in the assay on A549 (Homo sapiens) [3] came to 81.47%.

Turning to `COCCCn1c(C(C)C)nc2cc3c(Nc4ccc(OC)cc4)ncnc3cc21`, the 50% inhibitory concentration (IC50) is 15.8 µM in the assay with A549; above 100 µM in the assay on K562; above 100 µM in the assay on PC-3; above 100 µM with MOLT-4; above 100 µM in the assay with MDA-MB-231.

As to `CCOCCCn1c(C(C)C)nc2cc3c(Nc4ccc(OC)cc4)ncnc3cc21`, the half-inhibitory concentration (IC50) is 4.59 µM in the assay on A549; 5.18 µM in the assay with K562; above 100 µM with PC-3; above 100 µM with MOLT-4; above 100 µM in the assay with MDA-MB-231. For the same molecule, the “percent of cells in S phase” value in the assay with A549 (Homo sapiens) [1] is on record as 16.22%. The “Percentage of cells in G2/M phase” value with A549 (Homo sapiens) [2] is listed as 3.4%. Further, in the assay with A549 (Homo sapiens) [3], the Activity is reported as 80.38%.

`CCCCn1c(C(C)C)nc2cc3c(Nc4ccc(OC)cc4)ncnc3cc21`: the IC50 was 8.29 µM with A549; above 100 µM with K562; 18.9 µM in the assay on PC-3; 11.5 µM in the assay with MOLT-4; above 100 µM with MDA-MB-231.

`CCCCCCc1nc2cc3c(Nc4ccc(OC)cc4)ncnc3cc2n1CCCOCC`: the half-inhibitory concentration (IC50) was 39 µM in the assay on A549; 40.9 µM in the assay on K562; above 100 µM with PC-3; above 100 µM in the assay on MOLT-4; above 100 µM with MDA-MB-231.
